{
  "source": "patent US20090118274A1",
  "about": "“MONOCYCLIC AMINOPROPYL TETRAHYDRO-PYRAZOLO-PYRIDINE MODULATORS OF CATHEPSIN S” (priority 2007, published 2009)",
  "data": [
    {"biological_target": "T1, Recombinant human cathepsin S (CatS) (Homo sapiens, UniProt P25774)", "T1 construct": "made in house", "T1 sequence (P25774 115-331)": "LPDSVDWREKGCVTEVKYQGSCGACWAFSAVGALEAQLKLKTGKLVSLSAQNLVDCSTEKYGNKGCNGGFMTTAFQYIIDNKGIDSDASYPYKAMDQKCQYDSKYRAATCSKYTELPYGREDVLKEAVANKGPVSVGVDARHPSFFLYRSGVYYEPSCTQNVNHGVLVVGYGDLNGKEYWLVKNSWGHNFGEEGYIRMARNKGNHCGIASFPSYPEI", "test": "Recombinant human cathepsin S (CatS) fluorogenic substrate inhibition assay", "type": "biochemical", "details": "average of results obtained; substrate Z-Valine-Valine-Arginine-AMC 10 μM, pH 5.0; read-out: CatS IC50", "method": "Recombinant human cathepsin S (CatS) was expressed in the baculovirus system and purified in one step with a thiopropyl-sepharose column. […] The assay is run in 150 mM sodium acetate pH 5.0 containing 1.5 mM DTT and 150 mM NaCl. […] Measurements are taken every min for 20 min. The rate is calculated from the slope of the increase in fluorescence and the percent inhibition is calculated from this.", "units": {"IC50": "nM"}, "values": [
      {"smiles": "CC(C)=CC(=O)NCc1cc(-c2nn(CC(O)CN3CCC(C)(C)CC3)c3c2CN(S(C)(=O)=O)CC3)ccc1C(F)(F)F", "note": "(centres unmarked) [Example 28, 3-Methyl-but-2-enoic acid 5-{1-[3-(4,4-dimethyl-piperidin-1-yl)-2-hydroxy-propyl]-5-methanesulfonyl-4,5,6,7-tetrahydro-1H-pyrazolo[4,3-c]pyridin-3-yl}-2-trifluoromethyl-benzylamide]", "IC50": 60},
      {"smiles": "CC(=O)NC1CCN(CC(O)Cn2nc(-c3ccc(C(F)(F)F)c(CNC(=O)C=C(C)C)c3)c3c2CCN(S(C)(=O)=O)C3)CC1", "note": "(centres unmarked) [Example 29, 3-Methyl-but-2-enoic acid 5-{1-[3-(4-acetylamino-piperidin-1-yl)-2-hydroxy-propyl]-5-methanesulfonyl-4,5,6,7-tetrahydro-1H-pyrazolo[4,3-c]pyridin-3-yl}-2-trifluoromethyl-benzylamide]", "IC50": 10},
      {"smiles": "CC(C)=CC(=O)NCc1cc(-c2nn(CC(O)CN3CCC(F)(F)CC3)c3c2CN(S(C)(=O)=O)CC3)ccc1C(F)(F)F", "note": "(centres unmarked) [Example 31, 3-Methyl-but-2-enoic acid 5-{1-[3-(4,4-difluoro-piperidin-1-yl)-2-hydroxy-propyl]-5-methanesulfonyl-4,5,6,7-tetrahydro-1H-pyrazolo[4,3-c]pyridin-3-yl}-2trifluoromethyl-benzylamide]", "IC50": 110},
      {"smiles": "CC(C)=CC(=O)NCc1cc(-c2nn(CC(O)CN3CCC(O)C3)c3c2CN(S(C)(=O)=O)CC3)ccc1C(F)(F)F", "note": "(centres unmarked) [Example 32, 3-Methyl-but-2-enoic acid 5-{1-[2-hydroxy-3-(3-hydroxy-pyrrolidin-1-yl)-propyl]-5-methanesulfonyl-4,5,6,7-tetrahydro-1H-pyrazolo[4,3-c]pyridin-3-yl}-2-trifluoromethyl-benzylamide]", "IC50": 270},
      {"smiles": "CC(C)=CC(=O)NCc1cc(-c2nn(CC(O)CN3CCC(N(C)C)C3)c3c2CN(S(C)(=O)=O)CC3)ccc1C(F)(F)F", "note": "(centres unmarked) [Example 33, 3-Methyl-but-2-enoic acid 5-{1-[3-(3-dimethylamino-pyrrolidin-1-yl)-2-hydroxy-propyl]-5-methanesulfonyl-4,5,6,7-tetrahydro-1H-pyrazolo[4,3-c]pyridin-3-yl}-2-trifluoromethyl-benzylamide]", "IC50": 460},
      {"smiles": "CC(C)=CC(=O)NCc1cc(-c2nn(CC(O)CN3CCC(N(C)C)CC3)c3c2CN(S(C)(=O)=O)CC3)ccc1C(F)(F)F", "note": "(centres unmarked) [Example 34, 3-Methyl-but-2-enoic acid 5-{1-[3-(4-dimethylamino-piperidin-1-yl)-2-hydroxy-propyl]-5-methanesulfonyl-4,5,6,7-tetrahydro-1H-pyrazolo[4,3-c]pyridin-3-yl}-2-trifluoromethyl-benzylamide]", "IC50": 260},
      {"smiles": "CS(=O)(=O)N1CCc2c(c(-c3ccc(Cl)c(CNC(=O)c4ccc(F)cc4)c3)nn2CCCN2CCCC2)C1", "note": "[Example 35, N-{2-Chloro-5-[5-methanesulfonyl-1-(3-pyrrolidin-1-yl-propyl)-4,5,6,7-tetrahydro-1H-pyrazolo[4,3-c]pyridin-3-yl]-benzyl}-4-fluoro-benzamide]", "IC50": 280},
      {"smiles": "CS(=O)(=O)N1CCc2c(c(-c3ccc(C(F)(F)F)c(CNC(=O)CN4CCOCC4)c3)nn2CCCN2CCC(N3CCCC3=O)CC2)C1", "note": "[Example 39, N-[5-(5-Methanesulfonyl-1-{3-[4-(2-oxo-pyrrolidin-1-yl)-piperidin-1-yl]-propyl}-4,5,6,7-tetrahydro-1H-pyrazolo[4,3-c]pyridin-3-yl)-2-trifluoromethyl-benzyl]-2-morpholin-4-yl-acetamide]", "IC50": 440},
      {"smiles": "CS(=O)(=O)N1CCc2c(c(-c3ccc(C(F)(F)F)c(CNC(=O)c4ccc(F)cc4)c3)nn2CCCN2CCC(O)C2)C1", "note": "(centres unmarked) [Example 40, 4-Fluoro-N-(5-{1-[3-(3-hydroxy-pyrrolidin-1-yl)-propyl]-5-methanesulfonyl-4,5,6,7-tetrahydro-1H-pyrazolo[4,3-c]pyridin-3-yl}-2-trifluoromethyl-benzyl)-benzamide]", "IC50": 90},
      {"smiles": "CS(=O)(=O)N1CCc2c(c(-c3ccc(C(F)(F)F)c(CNC(=O)c4ccc(F)cc4)c3)nn2CCCN2CCC3(CCNC3=O)CC2)C1", "note": "[Example 41, 4-Fluoro-N-(5-{5-methanesulfonyl-1-[3-(1-oxo-2,8-diaza-spiro[4.5]dec-8-yl)-propyl]-4,5,6,7-tetrahydro-1H-pyrazolo[4,3-c]pyridin-3-yl}-2-trifluoromethyl-benzyl)-benzamide]", "IC50": 40},
      {"smiles": "CS(=O)(=O)N1CCc2c(c(-c3ccc(C(F)(F)F)c(CNC(=O)c4ccccc4)c3)nn2CC(O)CN2CCCC2)C1", "note": "(centres unmarked) [Example 56, N-{5-[1-(2-Hydroxy-3-pyrrolidin-1-yl-propyl)-5-methanesulfonyl-4,5,6,7-tetrahydro-1H-pyrazolo[4,3-c]pyridin-3-yl]-2-trifluoromethyl-benzyl}-benzamide]", "IC50": 250},
      {"smiles": "CS(=O)(=O)N1CCc2c(c(-c3ccc(C(F)(F)F)c(CNC(=O)c4ccc(F)cc4)c3)nn2CC(O)CN2CCCC2)C1", "note": "(centres unmarked) [Example 57, 4-Fluoro-N-{5-[1-(2-hydroxy-3-pyrrolidin-1-yl-propyl)-5-methanesulfonyl-4,5,6,7-tetrahydro-1H-pyrazolo[4,3-c]pyridin-3-yl]-2-trifluoromethyl-benzyl}-benzamide]", "IC50": 160},
      {"smiles": "CS(=O)(=O)N1CCc2c(c(-c3ccc(C(F)(F)F)c(CNC(=O)c4cccc(O)c4)c3)nn2CC(O)CN2CCCC2)C1", "note": "(centres unmarked) [Example 58, 3-Hydroxy-N-{5-[1-(2-hydroxy-3-pyrrolidin-1-yl-propyl)-5-methanesulfonyl-4,5,6,7-tetrahydro-1H-pyrazolo[4,3-c]pyridin-3-yl]-2-trifluoromethyl-benzyl}-benzamide]", "IC50": 420},
      {"smiles": "CC(=O)Nc1cccc(C(=O)NCc2cc(-c3nn(CC(O)CN4CCCC4)c4c3CN(S(C)(=O)=O)CC4)ccc2C(F)(F)F)c1", "note": "(centres unmarked) [Example 59, 3-Acetylamino-N-{5-[1-(2-hydroxy-3-pyrrolidin-1-yl-propyl)-5-methanesulfonyl-4,5,6,7-tetrahydro-1H-pyrazolo[4,3-c]pyridin-3-yl]-2-trifluoromethyl-benzyl}-benzamide]", "IC50": 500},
      {"smiles": "CS(=O)(=O)N1CCc2c(c(-c3ccc(C(F)(F)F)c(CNC(=O)c4ccc(F)c(F)c4)c3)nn2CC(O)CN2CCCC2)C1", "note": "(centres unmarked) [Example 60, 3,4-Difluoro-N-{5-[1-(2-hydroxy-3-pyrrolidin-1-yl-propyl)-5-methanesulfonyl-4,5,6,7-tetrahydro-1H-pyrazolo[4,3-c]pyridin-3-yl]-2-trifluoromethyl-benzyl}-benzamide]", "IC50": 210},
      {"smiles": "CS(=O)(=O)N1CCc2c(c(-c3ccc(C(F)(F)F)c(CNC(=O)c4ccc(F)c(Cl)c4)c3)nn2CC(O)CN2CCCC2)C1", "note": "(centres unmarked) [Example 61, 3-Chloro-4-fluoro-N-{5-[1-(2-hydroxy-3-pyrrolidin-1-yl-propyl)-5-methanesulfonyl-4,5,6,7-tetrahydro-1H-pyrazolo[4,3-c]pyridin-3-yl]-2-trifluoromethyl-benzyl}-benzamide]", "IC50": 190},
      {"smiles": "CS(=O)(=O)N1CCc2c(c(-c3ccc(C(F)(F)F)c(CNC(=O)c4ccccc4Cl)c3)nn2CC(O)CN2CCCC2)C1", "note": "(centres unmarked) [Example 62, 2-Chloro-N-{5-[1-(2-hydroxy-3-pyrrolidin-1-yl-propyl)-5-methanesulfonyl-4,5,6,7-tetrahydro-1H-pyrazolo[4,3-c]pyridin-3-yl]-2-trifluoromethyl-benzyl}-benzamide]", "IC50": 220},
      {"smiles": "CS(=O)(=O)N1CCc2c(c(-c3ccc(C(F)(F)F)c(CNC(=O)c4ccc(F)cc4Cl)c3)nn2CC(O)CN2CCCC2)C1", "note": "(centres unmarked) [Example 63, 2-Chloro-4-fluoro-N-{5-[1-(2-hydroxy-3-pyrrolidin-1-yl-propyl)-5-methanesulfonyl-4,5,6,7-tetrahydro-1H-pyrazolo[4,3-c]pyridin-3-yl]-2-trifluoromethyl-benzyl}-benzamide]", "IC50": 250},
      {"smiles": "CS(=O)(=O)N1CCc2c(c(-c3ccc(C(F)(F)F)c(CNC(=O)c4ccc5ccccc5c4)c3)nn2CC(O)CN2CCCC2)C1", "note": "(centres unmarked) [Example 64, Naphthalene-2-carboxylic acid 5-[1-(2-hydroxy-3-pyrrolidin-1-yl-propyl)-5-methanesulfonyl-4,5,6,7-tetrahydro-1H-pyrazolo[4,3-c]pyridin-3-yl]-2-trifluoromethyl-benzylamide]", "IC50": 370},
      {"smiles": "CS(=O)(=O)N1CCc2c(c(-c3ccc(C(F)(F)F)c(CNc4ncccn4)c3)nn2CC(O)CN2CCCC2)C1", "note": "(centres unmarked) [Example 65, 1-{5-Methanesulfonyl-3-[3-(pyrimidin-2-ylaminomethyl)-4-trifluoromethyl-phenyl]-4,5,6,7-tetrahydro-pyrazolo[4,3-c]pyridin-1-yl}-3-pyrrolidin-1-yl-propan-2-ol]", "IC50": 16600},
      {"smiles": "CS(=O)(=O)N1CCc2c(c(-c3ccc(C(F)(F)F)c(CNS(=O)(=O)c4ccccc4)c3)nn2CC(O)CN2CCCC2)C1", "note": "(centres unmarked) [Example 66, N-{5-[1-(2-Hydroxy-3-pyrrolidin-1-yl-propyl)-5-methanesulfonyl-4,5,6,7-tetrahydro-1H-pyrazolo[4,3-c]pyridin-3-yl]-2-trifluoromethyl-benzyl}-benzenesulfonamide]", "IC50": 2900},
      {"smiles": "CS(=O)(=O)N1CCc2c(c(-c3ccc(C(F)(F)F)c(CNS(=O)(=O)Cc4ccccc4)c3)nn2CCCN2CCC3(CCNC3=O)CC2)C1", "note": "[Example 67, N-(5-{5-Methanesulfonyl-1-[3-(1-oxo-2,8-diaza-spiro[4.5]dec-8-yl)-propyl]-4,5,6,7-tetrahydro-1H-pyrazolo[4,3-c]pyridin-3-yl}-2-trifluoromethyl-benzyl)-C-phenyl-methanesulfonamide]", "IC50": 2200},
      {"smiles": "CS(=O)(=O)N1CCc2c(c(-c3ccc(C(F)(F)F)c(CNc4nc5ccccc5o4)c3)nn2CC(O)CN2CCCC2)C1", "note": "(centres unmarked) [Example 68, 1-{3-[3-(Benzooxazol-2-ylaminomethyl)-4-trifluoromethyl-phenyl]-5-methanesulfonyl-4,5,6,7-tetrahydro-pyrazolo[4,3-c]pyridin-1-yl}-3-pyrrolidin-1-yl-propan-2-ol]", "IC50": 750}
    ]}
  ]
}
